Reference: US9211264B2, “Coated drug spheroids and uses thereof for eliminating or reducing conditions such as emesis and diarrhea” (Wyeth LLC, priority 2009, dated 2015)
Counter-ions that a name gives are not always drawn. Like-named read-outs stand apart in the source and are kept apart here.

Assays:
[1] = Exposure study: neratinib pharmacokinetics with and without concurrent ketoconazole; conditions: human, in vivo, 240 mg, 240 mg neratinib
Procedure: (§1) Exposure studies were performed to determine if gastrointestinal tolerability is related to systemic exposure of neratinib maleate.

[2] = GI tolerability with and without concurrent ketoconazole (subjects reporting GI AEs); format: in vivo
Procedure: as §1
Subjects Reporting GI AEs

[3] = Gastrointestinal adverse events in single dose clinical studies of healthy subjects; format: in vivo, human; conditions: 192 healthy subjects, five single doses
Text: In a clinical study, 192 healthy subjects were given five single doses of neratinib maleate. Adverse events were observed and classified as follows: • Grade 1 gastrointestinal adverse events (GI AEs) ˜25%40% • Grade 2 gastrointestinal adverse events (GI AEs) ˜15%
Grade 1 and 2 gastrointestinal adverse events predominated as the adverse events observed in clinical studies of healthy subjects.

[4] = Adverse events in multiple dose clinical studies of cancer patients; format: in vivo, human; conditions: cancer patients (>400), single agent and combination
Text: Adverse events in clinical studies of cancer patients were observed and classified as follows: • Nausea, Vomiting, Diarrhea, Dehydration, Anorexia (˜95%) • Asthenia, Fatigue (˜30-60%) • Rash (˜20-25%) • Elevated ALT, AST (<10%)

| Structure (SMILES) | AUC(0-t) ([1]; geometric mean in brackets, read-out: AUC t [Geo mean]) [ng·h/mL] | AUC(0-inf) ([1]; geometric mean in brackets, read-out: AUC∞ [Geo mean]) [ng·h/mL] | Cmax ([1]; geometric mean in brackets, read-out: Cmax [Geo mean]) [ng/mL] | AUC(0-t) ([1]; value outside brackets, read-out: AUC t) [ng·h/mL] | AUC(0-inf) ([1]; value outside brackets, read-out: AUC∞) [ng·h/mL] | Cmax ([1]; value outside brackets, read-out: Cmax) [ng/mL] | Subjects Reporting GI AEs: GI Disorders ([2]; 240 mg neratinib) [%] | Grade 2 gastrointestinal adverse events (GI AEs) [3] [%] | GI tolerability (diarrhea) relation to systemic exposure ([2]; exposure studies with concurrent ketoconazole) | Asthenia, Fatigue [4] | Elevated ALT, AST [4] [%] | Nausea, Vomiting, Diarrhea, Dehydration, Anorexia [4] [%] | Rash [4] |
| --- | --- | --- | --- | --- | --- | --- | --- | --- | --- | --- | --- | --- | --- |
| CCOc1cc2ncc(C#N)c(Nc3ccc(OCc4ccccn4)c(Cl)c3)c2cc1NC(=O)/C=C/CN(C)C [Neratinib, (E)-N-(4-(3-chloro-4-(pyridin-2-ylmethoxy)phenylamino)-3-cyano-7-ethoxyquinolin-6-yl)-4-(dimethylamino) but-2-enamide] | 727 | 802 | 51.5 | 835 | 903 | 55.3 | 31.8 |  |  |  |  |  |  |
| CCOc1cc2ncc(C#N)c(Nc3ccc(OCc4ccccn4)c(Cl)c3)c2cc1NC(=O)/C=C/CN(C)C [neratinib maleate, (E)-N-(4-(3-chloro-4-(pyridin-2-ylmethoxy)phenylamino)-3-cyano-7-ethoxyquinolin-6-yl)-4-(dimethylamino) but-2-enamide] |  |  |  |  |  |  |  | ~15 | not related to systemic exposure | 30-60% | < 10 | ~95 | 20-25% |
